Entries after “also recorded” stand apart in the source; their conditions may differ.
Legend:
[1] = mass spectrophotometry; cited from earlier work
[2] = tested on: vitamin B12 ([^57 Co]-cyanocobalamine) metabolism; assay: Influence of clioquinol on vitamin B12 in vivo: [57Co]-cyanocobalamine radioactivity in dissected tissues; design: species or system mice
Method: After three days, all of the mice were injected with [^57 Co]-cyanocobalamine. After two days, the animals were sacrificed, and the brain, liver and kidney were dissected and counted in a gamma-counter as thousand cpm/g tissue (wet weight)±SEM. The radioactivities in each of the groups are stated in Table 1 below: […]

[3] = unconjugated clioquinol, injected intravenously; crosses the blood-brain-barrier; cited from earlier work
[4] = monkeys, microautoradiographic techniques; terminal axodendritic boutons of the mossy fibres; cited from earlier work
[5] = mass spectrophotometry; cited from earlier work; remark: listed apart in the source
[6] = cited from earlier work
[7] = mass spectrophotometry; cited from earlier work; remark: listed apart in the source
neurotoxic injury = details: in vivo; cited from earlier work
[8] = mass spectrophotometry; cited from earlier work; remark: listed apart in the source
[9] = in vivo; cited from earlier work
Heliocobacter pylori = details: in vivo; cited from earlier work
[10] = Solubility in water / aqueous solutions; assay type: physicochemical; details: water / aqueous solutions for NMR testing
Method: (§1) The mixture was analyzed by ^1 H NMR.
(§2) Three different solutions were prepared and their ^1 H NMR spectra were recorded in a DRX 400 MHz spectrophotometer at 20° C. Solution a) contained free vitamin B12 (hydroxycobalamin) in a concentration of 2.6 mM.

[11] = mass spectrophotometry; cited from earlier work; remark: listed apart in the source
[12] = 1H NMR interaction of vitamin B12 with clioquinol glucuronide; assay type: binding
Method: FIG. 1 depicts the NMR spectra of three solutions. Solution a contained vitamin B12 (hydroxycobalamin), at a concentration of 2.6 mM.
as §1, §2

| SMILES | coordination number for Ni(II) [1] | radioactivity, Brain ([2]; brain, clioquinol 50 mg/kg/day, [57Co]-cyanocobalamine after three days, sacrificed after two days, ±SEM, control 9.4 ± 0.9) | amount of vitamin B12 trapped in the kidneys, in words ([2]; kidney, versus control) | radioactivity, Kidney ([2]; kidney, clioquinol 50 mg/kg/day, [57Co]-cyanocobalamine after three days, sacrificed after two days, ±SEM, control 895 ± 207) | radioactivity, Liver ([2]; liver, clioquinol 50 mg/kg/day, [57Co]-cyanocobalamine after three days, sacrificed after two days, ±SEM, control 97 ± 8) | penetration into the nervous system [3] | zinc chelates in the hippocampus [4] | coordination number for Zn(II) [5] | concentration in areas of the brain such as the hippocampus, in words [6] | coordination number for Co(II) [7] | effect in the treatment of neurotoxic injury (neurotoxic injury) | coordination number for Fe(III) [8] | excretion [9] | effect in the treatment of Heliocobacter pylori (Heliocobacter pylori) | solubility in water [10] | coordination number for Cu(II) [11] | shift of resonances in the mixture ([12]; aromatic region, benzimidazole moiety (vitamin B12), quinoline moiety (clioquinol glucuronide)) | interaction between clioquinol glucuronide and vitamin B12 ([12]; buffered water pH 6.5, 20° C, 2.6 mM vitamin B12 + 10 mM clioquinol glucuronide) |
| --- | --- | --- | --- | --- | --- | --- | --- | --- | --- | --- | --- | --- | --- | --- | --- | --- | --- | --- |
| Oc1c(I)cc(Cl)c2cccnc12 [Clioquinol, 5-chloro-7-iodo-8 hydroxyquinoline] | 2 | 8.4 ± 1.5 thousand cpm/g tissue (wet wei | decreased in the kidney; also recorded: A reduction in the amount of vitamin B12 trapped in the kidneys | 252 ± 61 thousand cpm/g tissue (wet wei | 85 ± 21 thousand cpm/g tissue (wet wei | extremely rapid penetration into the nervous system | form zinc chelates in the hippocampus | 2 | high | 2 | effective | 3 | excreted through the kidneys as glucuronide or sulfate derivatives; also recorded: excreted through the kidneys as glucuronide derivatives | effective | cannot be dissolved in aqueous solutions | 2 |  |  |
| COC(=O)[C@H]1OC(Oc2c(I)cc(Cl)c3cccnc23)[C@H](OC(C)=O)[C@@H](OC(C)=O)[C@@H]1OC(C)=O (stereo partly shown) [clioquinol glucuronide, methyl(5-chloro-7-iodo-quinolyl-2',3',4'-tri-O-acetyl-glycopyranosid)uronate] |  |  |  |  |  |  |  |  |  |  |  |  |  |  | soluble in water |  | the same is observed for two resonances of the clioquinol glucuronide | hydrophobic interaction between clioquinol glucuronide and vitamin B12; also recorded: vitamin B12 binds to clioquinol glucuronide |
